Structures are written as SMILES. Counter-ions that a name gives are not always drawn.

One experiment deals with serotonin reuptake. Put plainly: Inhibition of 3H-5-HT uptake into rat brain synaptosomes. In kind it is biochemical. The settings on record: ^3H-5-HT accumulation into whole rat brain synaptosomes. The protocol:
Inhibition of ^3H-5-HT Uptake Into Rat Brain Synaptosomes
Using this method, the ability of drugs to inhibit the accumulation of ^3H-5-HT into whole rat brain synaptosomes is determined in vitro. The assay was performed as described by Hyttel, J., Psychopharmacology 1978, 60, 13.
In turn, `CN(CCCCc1cccc2c1OCCO2)CCCC1(c2ccc(F)cc2)OCc2cc(C#N)ccc21` (single isomer, unassigned; (+)) [Compound 1a, (+)-1-[3-[[4-(1,4-Benzodioxan-5-yl)butyl]methylamino]propyl]-1-(4-fluorophenyl)-1,3-dihydroisobenzofuran-5-carbonitrile] came in with a concentration for half-maximal inhibition (IC50) of 60 nM.

The molecule `CN(CCCc1cccc2c1OCCO2)CCCC1(c2ccc(F)cc2)OCc2cc(C#N)ccc21` (single isomer, unassigned; (+)) [Compound 1b, (+)-1-[3-[[3-(1,4-Benzodioxan-5-yl)propyl]methylamino]propyl]-1-(4-fluorophenyl)-1,3-dihydroisobenzofuran-5-carbonitrile oxalate] came in with an IC50 of 13 nM.

As to `CN(CCCC1(c2ccc(F)cc2)OCc2cc(C#N)ccc21)CCc1cccc2c1OCCO2` (stereo not shown) [Compound 1c, 1-[3-[[2-(1,4-Benzodioxan-5-yl)ethyl]methylamino]propyl]-1-(4-fluorophenyl)-1,3-dihydroisobenzofuran-5-carbonitrile oxalate], the midpoint of inhibition, the IC50, lay at 85 nM.

As for `COc1ccccc1N1CCN(CCCC2(c3ccc(F)cc3)OCc3cc(C#N)ccc32)CC1` (stereo not shown) [Compound 2a, 1-(4-Fluorophenyl)-1-[3-[4-(2-methoxyphenyl)piperazinyl]propyl]-1,3-dihydroisobenzofuran-5-carbonitrile], the IC50 amounted to 340 nM.

On to `N#Cc1ccc2c(c1)COC2(CCCN1CCC(c2c[nH]c3cc(Cl)ccc23)CC1)c1ccc(F)cc1` (stereo not shown) [Compound 2o, 1-[3-[4-(6-chloro-1H-Indol-3-yl)piperidinyl]propyl]-1-(4-fluorophenyl)-1,3-dihydroisobenzofuran-5-carbonitrile], for which the IC50 turned out to be 31 nM.

With `CN(CCCC1(c2ccc(F)cc2)OCc2cc(C#N)ccc21)CCc1c[nH]c2c(F)cccc12` (stereo not shown) [Compound 12b, 1-[3-[[2-(7-Fluoro-1H-indol-3-yl)ethyl]methylamino]propyl]-1-(4-fluorophenyl)-1,3-dihydroisobenzofuran-5-carbonitrile], the IC50 is 10 nM.

For another experiment, the system named is Human 5-HT1A Receptors. In words: Inhibition of 3H-5-CT binding to human 5-HT1A receptors. The settings on record: at 100 nM; cloned human 5-HT1A receptors expressed in HeLa cells (HA7). The protocol:
The affinity of the compounds of the invention to 5-HT1A receptors was determined by measuring the inhibition of binding of a radioactive ligand at 5-HT1A receptors as described in the following test:
Inhibition of ^3H-5-CT Binding to Human 5-HT1A Receptors
By this method the inhibition by drugs of the binding of the 5-HT1A agonist ^3H-5-carboxamido tryptamine (^3H-5-CT) to cloned human 5-HT1A receptors stably expressed in transfected HeLa cells (HA7) (Fargin, A. et al, J. Biol. Chem., 1989, 264, 14848) is determined in vitro. The assay was performed as a modification of the method described by Harrington, M.A. et al, J. Pharmacol. Exp. Ther., 1994, 268, 1098. Human 5-HT1A receptors (40 µg of cell homogenate) were incubated for 15 minutes at 37 °C in 50 mM Tris buffer at pH 7.7 in the presence of ^3H-5-CT. Non-specific binding was determined by including 10 µM of metergoline. The reaction was terminated by rapid filtration through Unifilter GF/B filters on a Tomtec Cell Harvester. Filters were counted in a Packard Top Counter.
With `C=CCN(CCCc1cccc(OC)c1)CCCC1(c2ccc(F)cc2)OCc2cc(C#N)ccc21` (stereo not shown) [Compound 4l, 1-(4-Fluorophenyl)-1-[3-[[3-(3-methoxyphenyl)propyl](prop-2-en-1-yl)amino]propyl]-1,3-dihydroisobenzofuran-5-carbonitrile], the “Inhibition of ^3H- 5-CT binding % inhibition at 100 nM” value came to 76% inh. at 100 nM.

In the case of `COc1ccccc1OCCCN(C)CCCC1(c2ccc(F)cc2)OCc2cc(C#N)ccc21` (stereo not shown) [Compound 4m, 1-(4-Fluorophenyl)-1-[3-[[3-(2-methoxyphenoxy)propyl]methylamino]propyl]-1,3-dihydroisobenzofuran-5-carbonitrile], the “Inhibition of ^3H- 5-CT binding % inhibition at 100 nM” value was found to be 65% inh. at 100 nM.

Regarding `C#CCN(CCCc1c[nH]c2ccccc12)CCCC1(c2ccc(F)cc2)OCc2cc(C#N)ccc21` (stereo not shown) [Compound 4u, 1-[3-[[3-(1H-Indol-3-yl)propyl](prop-2-yn-1-yl)amino]propyl]-1-(4-fluorophenyl)-1,3-dihydroisobenzofuran-5-carbonitrile], the “Inhibition of ^3H- 5-CT binding % inhibition at 100 nM” value worked out at 58% inh. at 100 nM.

The experiment is the same for the next values; noted with them: cloned human 5-HT1A receptors expressed in HeLa cells (HA7), 15 minutes at 37 °C, pH 7.7.
`CN(CCCCc1cccc2c1OCCO2)CCCC1(c2ccc(F)cc2)OCc2cc(C#N)ccc21` (single isomer, unassigned; (+)) [Compound 1a, (+)-1-[3-[[4-(1,4-Benzodioxan-5-yl)butyl]methylamino]propyl]-1-(4-fluorophenyl)-1,3-dihydroisobenzofuran-5-carbonitrile] gave an IC50 of 39 nM. In other words, the double-digit nanomolar range.
